How the values were obtained:
Format in all cases: functional, cell-based
[1] = target: T1, Muscarinic acetylcholine receptor M5 (Homo sapiens, UniProt P08912); test: Activation of human cloned muscarinic M5 receptor expressed in CHO-K1 cells by Calcium flux assay relative to control
T1 sequence (P08912 whole entry): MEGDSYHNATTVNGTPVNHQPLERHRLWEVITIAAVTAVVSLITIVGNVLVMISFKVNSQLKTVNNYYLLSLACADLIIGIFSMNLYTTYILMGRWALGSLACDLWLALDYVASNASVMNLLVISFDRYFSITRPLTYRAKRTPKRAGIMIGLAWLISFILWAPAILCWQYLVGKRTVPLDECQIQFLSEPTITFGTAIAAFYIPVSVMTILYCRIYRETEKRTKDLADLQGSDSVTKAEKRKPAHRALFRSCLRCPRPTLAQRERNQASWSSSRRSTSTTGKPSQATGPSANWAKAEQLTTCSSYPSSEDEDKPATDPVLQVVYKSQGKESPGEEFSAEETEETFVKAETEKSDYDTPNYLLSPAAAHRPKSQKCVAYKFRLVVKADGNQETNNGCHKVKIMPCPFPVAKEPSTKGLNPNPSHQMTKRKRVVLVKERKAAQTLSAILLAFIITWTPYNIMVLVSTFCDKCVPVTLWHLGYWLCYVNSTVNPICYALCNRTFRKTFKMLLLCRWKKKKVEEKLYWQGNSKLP

[2] = target: Muscarinic acetylcholine receptor M3 (Homo sapiens, UniProt P20309); test: Activation of human cloned muscarinic M3 receptor expressed in CHO-K1 cells by Calcium flux assay relative to control
[3] = target: T2, Muscarinic acetylcholine receptor M4 (Homo sapiens, UniProt P08173); test: Activation of human cloned muscarinic M4 receptor expressed in CHO-K1 cells by Calcium flux assay relative to control
T2 sequence (P08173 whole entry): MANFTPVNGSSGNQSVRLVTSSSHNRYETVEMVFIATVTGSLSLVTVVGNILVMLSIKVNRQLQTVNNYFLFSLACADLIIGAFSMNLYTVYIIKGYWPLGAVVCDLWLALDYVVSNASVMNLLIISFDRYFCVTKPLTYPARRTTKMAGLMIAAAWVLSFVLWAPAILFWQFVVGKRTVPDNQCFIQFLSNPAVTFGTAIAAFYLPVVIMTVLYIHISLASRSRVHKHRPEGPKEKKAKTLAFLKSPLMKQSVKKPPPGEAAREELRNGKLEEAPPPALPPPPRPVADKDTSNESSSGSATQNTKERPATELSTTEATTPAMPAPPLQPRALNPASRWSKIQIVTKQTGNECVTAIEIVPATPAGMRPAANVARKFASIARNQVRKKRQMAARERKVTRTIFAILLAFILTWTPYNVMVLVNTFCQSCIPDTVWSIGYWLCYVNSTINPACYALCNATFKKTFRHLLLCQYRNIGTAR

[4] = target: T3, Muscarinic acetylcholine receptor M2 (Homo sapiens, UniProt P08172); test: Activation of human cloned muscarinic M2 receptor expressed in CHO-K1 cells by Calcium flux assay
T3 sequence (P08172 whole entry): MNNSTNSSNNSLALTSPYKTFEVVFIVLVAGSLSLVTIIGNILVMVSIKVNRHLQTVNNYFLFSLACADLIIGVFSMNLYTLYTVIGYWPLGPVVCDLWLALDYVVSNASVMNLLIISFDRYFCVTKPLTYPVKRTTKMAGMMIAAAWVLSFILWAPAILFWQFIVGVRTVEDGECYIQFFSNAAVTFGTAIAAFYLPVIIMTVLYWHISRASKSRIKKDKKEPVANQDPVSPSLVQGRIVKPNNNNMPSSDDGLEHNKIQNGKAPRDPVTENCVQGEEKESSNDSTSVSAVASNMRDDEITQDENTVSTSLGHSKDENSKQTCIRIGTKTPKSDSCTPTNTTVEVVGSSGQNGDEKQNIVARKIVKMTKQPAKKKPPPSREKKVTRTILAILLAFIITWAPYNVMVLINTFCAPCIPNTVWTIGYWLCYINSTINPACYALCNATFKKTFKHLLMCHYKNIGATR

Sequence of Muscarinic acetylcholine receptor M3 (P20309 whole entry): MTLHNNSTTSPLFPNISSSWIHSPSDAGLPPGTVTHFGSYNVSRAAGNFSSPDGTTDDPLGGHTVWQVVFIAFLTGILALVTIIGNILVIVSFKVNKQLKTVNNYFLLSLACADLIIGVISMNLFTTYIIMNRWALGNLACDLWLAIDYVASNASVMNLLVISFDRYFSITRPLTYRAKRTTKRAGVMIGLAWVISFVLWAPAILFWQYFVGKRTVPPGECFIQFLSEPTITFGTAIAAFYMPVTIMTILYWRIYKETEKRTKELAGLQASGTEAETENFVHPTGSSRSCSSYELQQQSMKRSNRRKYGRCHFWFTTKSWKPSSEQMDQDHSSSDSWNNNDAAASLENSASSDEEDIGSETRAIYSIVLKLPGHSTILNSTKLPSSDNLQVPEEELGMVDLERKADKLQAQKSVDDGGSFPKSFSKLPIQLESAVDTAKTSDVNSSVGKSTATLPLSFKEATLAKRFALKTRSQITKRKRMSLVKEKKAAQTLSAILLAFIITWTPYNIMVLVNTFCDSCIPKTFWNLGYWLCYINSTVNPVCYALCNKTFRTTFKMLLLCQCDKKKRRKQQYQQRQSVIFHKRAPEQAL

EC50 [1] | EC50 [2] | EC50 [3] | EC50 [4] | Compound
> 25 µM | > 25 µM | – | – | COc1cc(F)ccc1C1CCN([C@@H]2COC3(C2)CN(C(=O)C2COC2)C3)CC1
> 25 µM | > 25 µM | 0.0065 µM | 0.21 µM | CCOc1ccccc1C1CCN([C@@H]2CCC3(C2)CN(C(=O)C2COC2)C3)CC1
> 25 µM | > 25 µM | – | – | COc1ccc(F)cc1C1CCN([C@@H]2COC3(C2)CN(C(=O)C2COC2)C3)CC1
– | > 25 µM | – | – | CCOc1ccccc1C1CCN([C@@H]2CCC3(C2)CN(C(C)=O)C3)CC1
– | 0.11 µM | – | – | CCCCCCOc1nsnc1C1=CCCN(C)C1 [XANOMELINE]

Second part, the molecule before the results:

Compound | EC50 [1] | EC50 [2] | EC50 [3] | EC50 [4]
COc1ccccc1C1CCN([C@@H]2COC3(C2)CN(C(=O)C2COC2)C3)CC1 | > 25 µM | > 25 µM | – | –
COc1ccc(F)cc1C1CCN([C@@H]2CCC3(C2)CN(C(=O)C2COC2)C3)CC1 | 0.14 µM | > 25 µM | 0.0017 µM | –
COc1cc(F)ccc1C1CCN([C@@H]2CCC3(C2)CN(C(=O)C2COC2)C3)CC1 | > 25 µM | > 25 µM | 0.0093 µM | –
CCOc1ccccc1C1CCN([C@@H]2CCC3(C2)CN(C(=O)CC)C3)CC1 | > 25 µM | > 25 µM | – | –
COc1ccccc1C1CCN(C2CCC3(C2)CN(C(=O)C2COC2)C3)CC1 (single isomer, unassigned) | – | > 25 µM | – | –

Source: ChEMBL document CHEMBL5390321, “Transaminases Provide Key Chiral Building Blocks for the Synthesis of Selective M1/M4 Agonists” (ACS Med Chem Lett, 2023)
